Test results reported in article PMC8011926 (Journal of Medicinal Chemistry, 2020).
Non-standard residues stand in square brackets, D forms with d. Residues, ends and D or L forms follow the SMILES beside them. No end group written: not given here.

Legend:
[1] = molecular target: T1, NOP receptor (NOP-RLuc/Gβ1-RGFP) (Homo sapiens, UniProt P41146); assay: NOP/G protein interaction, BRET assay in membranes; assay type: biochemical; conditions: for NOP/G protein pEC50 (CL95%): BRET, membranes (3 μg protein) from HEK293 cells co-expressing NOP-RLuc/Gβ1-RGFP, room temperature, mean of five independent experiments in duplicate, 95% confidence limits; for NOP/G protein α ± sem (intrinsic activity): Emax of ligand / Emax of N/OFQ(1–13)-NH2, mean ± sem of five experiments in duplicate; for NOP/G protein CR (concentration ratio): ratio between EC50 of the ligand and that of the standard agonist N/OFQ(1–13)-NH2
T1 construct: expressed in transfected cells; host or cells: HEK293 (enriched plasma membranes)
Method: (§1) For this study, human embryonic kidney (HEK293) cells, permanently co-expressing the different pairs of fusion proteins NOP-RLuc/Gβ1-RGFP and NOP-RLuc/β-arrestin 2-RGFP, and SH-SY5Y cells stably, co-expressing the different pairs of fusion proteins mu-RLuc/Gβ1-RGFP and mu-RLuc/β-arrestin 2-RGFP or delta-RLuc/Gβ1-RGFP and delta-RLuc/β-arrestin 2-RGFP, were used. Cells were prepared and cultured, as described previously.[19],[23] Cells were grown in Dulbecco’s modified Eagle’s medium (DMEM)/HAMS F12 (1:1) supplemented with 10% fetal bovine serum, penicillin G (100 units/mL), streptomycin (100 μg mL^–1), L-glutamine (2 mM), fungizone (1 μg mL^–1), geneticin (G418; 200 μg mL^–1), and hygromycin B (100 μg mL^–1) in a humidified atmosphere of 5% CO2 at 37 °C. For G protein experiments, enriched plasma membrane aliquots from transfected cells were prepared by differential centrifugation; cells were detached with phosphate buffered saline (PBS)/EDTA solution (1 mM, pH 7.4 NaOH), then, after 5 min 500g centrifugation, Dounce-homogenized (30 strokes) in cold homogenization buffer (tris(hydroxymethyl)aminomethane 5 mM, EGTA 1 mM, DTT 1 mM, pH 7.4 HCl) in the presence of sucrose (0.32 M). Three following centrifugations were performed at 10 min 1000g (4 °C), and the supernatants were kept. Two 20 min 24,000g (4 °C) subsequent centrifugations (the second in the absence of sucrose) were performed for separating enriched membranes that, after discarding the supernatant, were kept in ultrapure water at −80 °C.[67] The protein concentration in membrane preparations was determined using the QPRO-BCA kit (Cyanagen Srl, Bologna, IT) and the Ensight (PerkinElmer, Waltham, USA) in the spectrophotometer mode.
(§2) Luminescence in membranes was recorded in 96-well untreated white opaque microplates, while in whole cells, it was recorded in 96-well sterile poly-D-lysine-coated white opaque microplates (PerkinElmer, Waltham, MA, USA) using the luminometer Victor 2030 (PerkinElmer, Waltham, MA, USA). For the determination of receptor/G protein interactions, membranes (3 μg of protein) prepared from cells co-expressing NOP (or mu or delta)/RLuc and Gβ1/RGFP were added to wells in DPBS. For the determination of receptor/β-arrestin 2 interactions, cells co-expressing NOP (or mu or delta)/RLuc and β-arrestin 2/RGFP were plated 24 h before the experiment in poly-D-lysine-treated plates (100,000 cells/well). The cells were prepared for the experiment substituting the medium with PBS with MgCl2 (0.5 mM) and CaCl2 (0.9 mM). Coelenterazine at a final concentration of 5 μM was injected 15 min prior to reading the cell plate. Different concentrations of ligands in 20 μL of PBS–BSA 0.01% were added and incubated 5 min before reading luminescence. […] The BRET ratio was measured 15 min after agonist injection. All experiments were performed at room temperature.
(§3) The pharmacological terminology adopted in this paper is consistent with IUPHAR recommendations.[68] All data are expressed as the mean ± sem of five independent experiments made in duplicate. […] Ligand efficacy was expressed as intrinsic activity (α), calculated as the ratio between the Emax of the ligand and that of the standard agonist. Count per second (CPS) measured for the RGFP and RLuc light emitted using 510(10) and 460(25) filters (PerkinElmer, Waltham, MA), respectively, was used to calculate the BRET ratio. All data are expressed as the stimulated BRET ratio, that is, the ratio between CPS from RGFP and RLuc in the presence of ligands minus the BRET ratio in vehicle-treated wells. […] Concentration–response curves to agonists were fitted to the classical four-parameter logistic nonlinear regression model [drawing 1]
(§4) Curves fitting were performed using PRISM 6.0 (GraphPad Software In., San Diego, USA).

NOP receptor = assay: NOP bias factor, G protein vs β-arrestin 2 (Black–Leff operational model); conditions: for BIAS FACTOR: supplementary CSV (molecular formula strings), repeats Tables 1–7 without confidence limits; for bias factor (CL95%), NOP: ΔΔlog(τ/KA) G protein minus β-arrestin 2, N/OFQ(1–13)-NH2 as standard unbiased ligand, positive = toward G protein, mean of at least five experiments
Description: The concentration–response curves of each compound were fitted to the Black–Leff operational model, described by Nagi and Pineyro[70] [drawing 3] where [A] is the agonist concentration, the maximal response of the system is given by Em, n is a fitting parameter for the slope, the affinity of the agonist is represented by the equilibrium dissociation constant of the agonist–receptor complex (KA), and the efficacy of the agonist is defined by τ. τ and KA are descriptive parameters of intrinsic efficacy and binding affinity and may be directly obtained by fitting the experimental data to the operational equation and can be expressed as “transduction coefficients” log(τ/KA). The relative efficiency of agonists producing activation of any pathways can thus be quantified with a “normalized” transduction coefficient, namely Δlog(τ/KA). Finally, the bias factors were calculated as difference between Δlog(τ/KA) values for a given agonist between the pathways (G protein and β-arrestin 2) [drawing 4]
Bias factors are expressed as the mean of at least five independent experiments, and CL95% are indicated. Biased factor is considered to be statistically different from 0 when 0 is not included in CL95%. α values have been statistically analyzed with one-way analysis of variance (ANOVA) followed by the Dunnett post hoc test for multiple comparisons; P values less than 0.05 were considered to be statistically significant.

[2] = molecular target: T2, NOP receptor (NOP-RLuc/β-arrestin 2-RGFP) (Homo sapiens, UniProt P41146); assay: NOP/β-arrestin 2 interaction, BRET assay in whole cells; assay type: cell-based; conditions: for NOP/β-arrestin 2 pEC50 (CL95%): BRET, whole HEK293 cells co-expressing NOP-RLuc/β-arrestin 2-RGFP, 100,000 cells/well, room temperature, mean of five independent experiments in duplicate, 95% confidence limits; for NOP/β-arrestin 2 α ± sem (intrinsic activity): Emax of ligand / Emax of N/OFQ(1–13)-NH2, mean ± sem of five experiments in duplicate; for NOP/β-arrestin 2 CR (concentration ratio): ratio between EC50 of the ligand and that of the standard agonist N/OFQ(1–13)-NH2
T2 construct: expressed in transfected cells; host or cells: HEK293 (whole cells)
Method: as §1, §2, §3, §4

[3] = molecular target: N/OFQ peptide (NOP) receptor fused to Renilla luciferase (UniProt P41146)
Chain of N/OFQ peptide (NOP) receptor fused to Renilla luciferase (P41146 whole entry, the tested form may be a part): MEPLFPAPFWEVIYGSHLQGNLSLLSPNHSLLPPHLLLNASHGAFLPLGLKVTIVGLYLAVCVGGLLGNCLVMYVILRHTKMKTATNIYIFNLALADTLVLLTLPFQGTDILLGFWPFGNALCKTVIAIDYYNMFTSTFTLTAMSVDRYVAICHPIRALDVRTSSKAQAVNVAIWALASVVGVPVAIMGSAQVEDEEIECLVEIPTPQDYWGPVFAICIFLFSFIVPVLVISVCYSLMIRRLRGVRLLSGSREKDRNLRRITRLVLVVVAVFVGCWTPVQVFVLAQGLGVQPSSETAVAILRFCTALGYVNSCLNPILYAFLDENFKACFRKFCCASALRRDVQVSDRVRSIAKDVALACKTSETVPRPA

T2 sequence (P41146 whole entry): as the sequence (P41146 whole entry, the tested form may be a part) above
T1 sequence (P41146 whole entry): as the sequence (P41146 whole entry, the tested form may be a part) above

Molecule | NOP/G protein pEC50 (CL95%) [1] | NOP/G protein α ± sem (intrinsic activity) [1] | NOP/G protein CR (concentration ratio) [1] | BIAS FACTOR (NOP receptor) | bias factor (CL95%), NOP (NOP receptor) | NOP/β-arrestin 2 pEC50 (CL95%) [2] | NOP/β-arrestin 2 α ± sem (intrinsic activity) [2] | NOP/β-arrestin 2 CR (concentration ratio) [2] | pEC50 for promoting the NOP/G protein interaction (BRET, membranes with NOP-RLuc and Gβ1-RGFP) [3] | pEC50 for promoting the NOP/β-arrestin 2 interaction (BRET, cells with NOP-RLuc and β-arrestin 2-RGFP) [3] | other results
C[C@H](NC(=O)CNC(=O)[C@@H](NC(=O)[C@H](Cc1ccccc1)NC(=O)CNC(=O)[C@@H](C)NC(=O)[C@@H](N)Cc1ccccc1)[C@@H](C)O)C(=O)N[C@@H](CCCNC(=N)N)C(=O)N[C@@H](CCCCN)C(=O)N[C@@H](CO)C(=O)N[C@@H](C)C(=O)N[C@@H](CCCNC(=N)N)C(=O)N[C@@H](CCCCN)C(N)=O [Compound 26, [D-Ala^2]N/OFQ(1–13)-NH2] (H-F[dA]GFTGARKSARK-NH2) | 7.57 (7.28–7.86) | 1.03 ± 0.03 | 13 | 0.20 | 0.20 (−0.26–0.66) | 7.16 (6.94–7.34) | 0.95 ± 0.05 | 13 | – | – | less potent than N/OFQ(1–13)-NH2 / reduction of potency, NOP/G protein [1]: approximately 10 fold
FGGFTGARASARK-NH2 [Compound 8, [Ala^9]N/OFQ(1–13)-NH2] | 8.14 (6.88–9.41) | 0.97 ± 0.04 | 5 | -0.15 | –0.15 (−0.79–0.49) | 7.77 (7.43–8.11) | 1.03 ± 0.07 | 3 | – | – | –
FGGFTGARKAARK-NH2 [Compound 9, [Ala^10]N/OFQ(1–13)-NH2] | 9.25 (7.82–10.68) | 0.94 ± 0.04 | 0.35 | -0.08 | –0.08 (−0.67–0.50) | 8.43 (7.91–8.95) | 1.00 ± 0.04 | 0.68 | – | – | –
FGGFTGARKSAAK-NH2 [Compound 10, [Ala^12]N/OFQ(1–13)-NH2] | 7.31 (6.41–8.22) | 0.91 ± 0.04 | 31 | -0.15 | –0.15 (−0.78–0.49) | 6.85 (6.57–7.14) | 0.99 ± 0.05 | 26 | – | – | –
FGGFTGARKSARA-NH2 [Compound 11, [Ala^13]N/OFQ(1–13)-NH2] | 7.91 (7.24–8.59) | 0.96 ± 0.06 | 8 | -0.48 | –0.48 (−1.14–0.18) | 7.88 (7.75–8.01) | 1.03 ± 0.05 | 2 | – | – | –
LGGFTGARKSARK-NH2 [Compound 23, [Leu^1]N/OFQ(1–13)-NH2] | 8.19 (7.88–8.51) | 1.06 ± 0.02 | 3 | -0.08 | –0.08 (−0.53–0.37) | 7.87 (7.69–8.04) | 1.04 ± 0.06 | 3 | – | – | –
[D-Phe^3]N/OFQ(1–13)-NH2 (FG[dF]FTGARKSARK-NH2; N-terminus assumed; SMILES C[C@H](NC(=O)CNC(=O)[C@@H](NC(=O)[C@H](Cc1ccccc1)NC(=O)[C@@H](Cc1ccccc1)NC(=O)CNC(=O)[C@@H](N)Cc1ccccc1)[C@@H](C)O)C(=O)N[C@@H](CCCNC(=N)N)C(=O)N[C@@H](CCCCN)C(=O)N[C@@H](CO)C(=O)N[C@@H](C)C(=O)N[C@@H](CCCNC(=N)N)C(=O)N[C@@H](CCCCN)C(N)=O) [Compound 25] | inactive | – | – | – | – | inactive | – | – | – | – | –
[DThr^5]N/OFQ(1–13)-NH2 [Compound 14] | crc incomplete | – | – | – | – | inactive | – | – | – | – | –
FGGFTGARKAARK-NH2 [[Ala^10]N/OFQ(1–13)-NH2] | – | – | – | – | – | – | – | – | 9.25 -log10 M | 8.43 -log10 M | –
FAGFTGARKSARK-NH2 [[Ala^2]N/OFQ(1–13)-NH2] | – | – | – | – | – | – | – | – | 6.36 -log10 M | – | –
FGGFTGARASARK-NH2 [[Ala^9]N/OFQ(1–13)-NH2] | – | – | – | – | – | – | – | – | 8.14 -log10 M | 7.77 -log10 M | –
FGGFTGARKSARA-NH2 [[Ala^13]N/OFQ(1–13)-NH2] | – | – | – | – | – | – | – | – | 7.91 -log10 M | 7.88 -log10 M | –
FGGFTGARKSAAK-NH2 [[Ala^12]N/OFQ(1–13)-NH2] | – | – | – | – | – | – | – | – | 7.31 -log10 M | 6.85 -log10 M | –
FGGFTGAAKSARK-NH2 [[Ala^8]N/OFQ(1–13)-NH2] | – | – | – | – | – | – | – | – | – | – | concentration ratio (EC50 of the ligand / EC50 of N/OFQ(1–13)-NH2) for promoting the NOP/G protein interaction (BRET, membranes); concentration–response curve incomplete [3]: 1000
AGGFTGARKSARK-NH2 [[Ala^1]N/OFQ(1–13)-NH2] | – | – | – | – | – | – | – | – | – | – | concentration ratio (EC50 of the ligand / EC50 of N/OFQ(1–13)-NH2) for promoting the NOP/G protein interaction (BRET, membranes); concentration–response curve incomplete [3]: 700
FGGFTAARKSARK-NH2 [[Ala^6]N/OFQ(1–13)-NH2] | – | – | – | – | – | – | – | – | 7.66 -log10 M | 7.1 -log10 M | –
FGGFAGARKSARK-NH2 [[Ala^5]N/OFQ(1–13)-NH2] | – | – | – | – | – | – | – | – | 7.12 -log10 M | 6.13 -log10 M | –
